Measured values reported in patent US20040242871A1, “Novel arylheteroalkylamine derivatives” (priority 2001, published 2004).

Row | melting point | SMILES
1 | 142 to 144 °C | N#Cc1ccc(S[C@H](C[C@H](N)CO)c2ccccc2)c(Cl)c1.O=C(O)C(=O)O [Example 43, 4-[[(1R,3S)-3-Amino-4-hydroxy-1-phenylbutyl]thio]-3-chlorobenzonitrile ethanedioate]
2 | 150 to 152 °C | N#Cc1ccc(C(F)(F)F)nc1OC(C[C@H](N)CO)c1ccno1.O=C(O)/C=C/C(=O)O (stereo partly drawn) [Example 52, 2-[[(3S)-3-Amino-4-hydroxy-1-(5-isoxazolyl)butyl]oxy]-6-(trifluoromethyl)-3-pyridinecarbonitrile, (E)-butenedioate]
3 | 148 to 150 °C | Cc1nc(O[C@H](C[C@H](N)CO)c2nccs2)c(C#N)cc1F.Cl [Example 59, 2-[[(1R,3S)-3-Amino-4-hydroxy-1-(2-thiazolyl)butyl]oxy]-5-fluoro-6-methyl-3-pyridinecarbonitrile hydrochloride]
4 | 177 to 178 °C | COc1cc(S[C@H](C[C@H](N)CO)c2sccc2F)c(C#N)cn1.O=C(O)/C=C/C(=O)O [Example 60, 4-[[(1R,3S)-3-Amino-1-(3-fluoro-2-thienyl)-4-hydroxybutyl]thio]-6-methoxy-3-pyridinecarbonitrile (E)-butenedioate salt]
5 | 177 to 178 °C | N#Cc1cc(F)c(Cl)cc1O[C@H](C[C@H](N)CO)c1scnc1Cl.O=C(O)/C=C/C(=O)O [Example 61, 2-[[(1R,3S)-3-Amino-1-(4-chloro-5-thiazolyl)-4-hydroxybutyl]oxy]-4-chloro-5-fluorobenzonitrile (E)-butenedioate salt]
6 | 213 to 228 °C | COc1cc(S[C@@H](C[C@H](N)CO)c2ccccc2)c(C#N)cn1.O=C(O)/C=C/C(=O)O [Example 13, 4-[[(1S,3S)-3-Amino-4-hydroxy-1-phenylbutyl]thio]-6-methoxy-3-pyridinecarbonitrile (E)-butenedioate]
7 | 163 to 165 °C | N#Cc1cc(F)ccc1O[C@H](C[C@H](N)CO)c1cncs1.O=C(O)/C=C/C(=O)O [Example 45, 2-[[(1R,3S)-3-Amino-4-hydroxy-1-(5-thiazolyl)butyl]oxy]-5-fluoro-benzonitrile (2E)-2-butenedioate]
8 | 172 to 173 °C | COc1cc(S[C@H](C[C@H](N)CO)c2ccccc2)c(C#N)cn1 [Example 10, 4-[[(1R,3S)-3-Amino-4-hydroxy-1-phenylbutyl-]thio]-6-methoxy-3-pyridinecarbonitrile (E)-butenedioate]
9 | 221 to 223 °C | COc1cc(S[C@H](C[C@@H](N)CO)c2ccccc2)c(C#N)cn1.O=C(O)/C=C/C(=O)O [Example 11, 4-[[(1R,3R)-3-Amino-4-hydroxy-1-phenylbutyl]thio]-6-methoxy-3-pyridinecarbonitrile (E)-butenedioate]
10 | 238 to 240 °C | Cl.Cl.N#Cc1ccc(C(F)(F)F)cc1S[C@H](C[C@H](N)CO)c1cccnc1 [Example 55, 2-[[(1R,3S)-3-Amino-4-hydroxy-1-(3-pyridinyl)butyl]thio]-4-(trifluoromethyl)benzonitrile dihydrochloride]
11 | 67 to 69 °C | N#Cc1cccnc1S[C@H](C[C@H](N)CO)c1ccccc1.O=C(O)/C=C/C(=O)O [Example 22, 2-[[(1R,3S)-3-Amino-4-hydroxy-1-phenylbutyl]thio]-3-pyridinecarbonitrile (E)-butenedioate]
12 | 111 to 115 °C | N#Cc1cc(F)c(Cl)cc1O[C@H](C[C@H](N)CO)c1ccsc1.O=C(O)C(=O)O [Example 54, 2-[[3-(3S)-Amino-4-hydroxy-1(R)-(3-thienyl)butyl]oxy]-4-chloro-5-fluorobenzonitrile ethanedioate]
13 | 109 to 114 °C | N#Cc1ccc(C(F)(F)F)nc1O[C@H](C[C@H](N)CO)c1ccc(F)cc1.O=C(O)C(=O)O [Example 36, 2-[[(1R,3S)-3-Amino-1-(4-fluorophenyl)-4-hydroxybutyl]oxy]-6-trifluoromethyl-3-pyridinecarbonitrile ethanedioate]
14 | 278 to 280 °C | Cl.Cl.N#Cc1ccc(Br)cc1S[C@H](C[C@H](N)CO)c1cccnc1 [Example 58, 2-[[(1R,3S)-3-Amino-4-hydroxy-1-(3-pyridyl)butyl]thio]-4-bromobenzonitrile dihydrochloride]
15 | 169.5 to 171.5 °C | CCOc1cc(S[C@H](C[C@H](N)CO)c2ccccc2)c(C#N)cn1 [Example 29, 4-[[(1R,3S)-3-Amino-4-hydroxy-1-phenylbutyl]thio]-6-ethoxy-3-pyridinecarbonitrile. (E)-butenedioate]
16 | 252 to 255 °C | Cl.Cl.N#Cc1cc(F)c(Cl)cc1S[C@H](C[C@H](N)CO)c1cccnc1 [Example 57, 2-[[(1R,3S)-3-Amino-4-hydroxy-1-(3-pyridinyl)butyl]thio]-4-chloro-5-fluorobenzonitrile dihydrochloride]
17 | 191 to 193 °C | COc1cc(S[C@H](C[C@H](N)CO)c2ccccc2)c(Cl)cn1 [Example 28, (β^1S,β^1R) β-Amino-δ-[(5-chloro-2-methoxy-4-pyridinyl)thio]-benzenebutanol (E)-2-butenedioate]
18 | 147 to 149 °C | N#Cc1ncc(C(F)(F)F)cc1S[C@H](C[C@H](N)CO)c1ccccc1.O=C(O)C(=O)O [Example 30, 3-[[(1R,3S)-3-Amino-4-hydroxy-1-phenylbutyl]thio]-5-(trifluoromethyl)-2-pyridinecarbonitrile ethanedioate]
19 | 171 to 172 °C | CCC[C@@H](C[C@H](N)CO)Oc1cc(Cl)c(F)cc1C#N.O=C(O)C(=O)O [Example 48, 2-[[(1S,3S)-3-Amino-4-hydroxy-1-propylbutyl]oxy]-4-chloro-5-fluorobenzonitrile ethanedioate]
20 | 206 to 208 °C | CNc1cc(S[C@H](C[C@H](N)CO)c2ccccc2)c(C#N)cn1.Cl.Cl [Example 26, 4-[[(1R,3S)-3-Amino-4-hydroxy-1-phenylbutyl]thio]-6-(methylamino)-3-pyridinecarbonitrile dihydrochloride]
21 | 55 to 80 °C | CCN[C@H](CO)C[C@@H](Oc1cc(Cl)c(F)cc1C#N)c1nccs1.O=C(O)C(=O)O [Example 44, 4-Chloro-2-[[(1R,3S)-3-(ethylamino)-4-hydroxy-1-(2-thiazolyl)butyl]oxy]-5-fluoro-benzonitrile ethanedioate salt]
22 | 78 °C | CC(=O)c1ccc(C#N)c(S[C@H](C[C@H](N)CO)c2ccccc2)n1.Cl [Example 20, 6-Acetyl-2-[[(1R,3S)-3-amino-4-hydroxy-1-phenylbutyl]thio]-3-pyridinecarbonitrile Hydrochloride]
23 | 120 to 130 °C | Cl.N#Cc1ccc(Cl)cc1S[C@H](C[C@H](N)CO)c1cncnc1 [Example 56, 2-[[(1R,3S)-3-Amino-4-hydroxy-1-(5-pyrimidyl)butyl]thio]-4-chlorobenzonitrile hydrochloride]
24 | 147 to 149 °C | N#Cc1ccc(CO)nc1S[C@H](C[C@H](N)CO)c1ccccc1.O=C(O)/C=C/C(=O)O [Example 21, 2-[[(1R,3S)-3-Amino-4-hydroxy-1-phenylbutyl]thio]-6-(hydroxymethyl)-3-pyridinecarbonitrile (E)-butenedioate]
25 | 144 to 146 °C | N#Cc1cnc(OC(F)F)cc1S[C@H](C[C@H](N)CO)c1ccccc1.O=C(O)/C=C/C(=O)O [Example 14, 4-[[(1R,3S)-3-Amino-4-hydroxy-1-phenylbutyl]thio]-6-(difluoromethoxy)-3-pyridinecarbonitrile (E)-butenedioate]
